Ten compounds from patent US20250101025A1, “NOVEL PLK1 DEGRADATION INDUCING COMPOUND” (UPPTHERA, INC., priority 2021, published 2025) can be followed below.

Like-named read-outs stand apart in the source and are kept apart here.

Holding throughout (type): cell-based
One test concerns the target T1, PLK1 (Homo sapiens, UniProt P53350).
T1 construct: endogenous in cells; host or cells: HeLa LgBit (Plk1-HiBit KI): HeLa stably expressing LgBit, with HiBit knocked in at the endogenous Plk1 locus by CRISPR/Cas9
Nature of the test: Luciferase assay for PLK1 in HeLa LgBit (Plk1-HiBit KI) cell line. The following applies: compound 300 nM, luminescence after 9 hours. The procedure: 2. Luciferase Assay for PLK1
(1) Preparation and Culture of HeLa LgBit (Plk1-HiBit KI) Cell Line
A HeLa cell line in which the LgBit vector was transfected and expressed stably was prepared. Then, after constructing gRNA and donor to express the HiBit amino acid sequence behind the C-terminal of the Plk1 gene, which was inherent in the cell, it was inserted into the cell together with a vector capable of expressing CRISPR/Cas9. Only the cells in which the insertion was completed and knock-in had progressed were selected, sub-cultured and used.
(2) Treatment of Compounds of the Present Invention and Method of Luciferase Assay
In the case of HeLa LgBit (Plk1-HiBit KI), the compounds were treated after being released after thymidine block, and the process was as follows. Thymidine (Sigma-Aldrich Cat. No. T9250-5G) was completely dissolved in DW and used in the experiment. For thymidine block, the products were treated with 2 mM of thymidine and then incubated for 24 hours. For release and chemical treatment, the medium was suctioned and washed with 1×PBS. TrypLE™ was added and incubated in 37° C. CO2 incubator for 5 min. Cells neutralized by adding complete media were counted through a counter. For each well of a 96-well culture plate (SPL), 3.3×10^4 cells and a total medium volume of 150 μL were seeded and incubated in a CO2 incubator.
Each cell line was incubated in a CO2 incubator for 18 hours, and Endurazine was added to each well to make up 4% of the total volume. After adding the compound of the present invention in a 96-well white plate (SPL) to a concentration of 300 nM, the wavelength of the plate reader (BMG Labtech, CLARIOstar Plus) was set to […], and then the luminescence was tracked in real time.
In Table 2, Activity represents the ratio of the luminescence value of each Exemplary Compound treatment group to DMSO treatment group (+++: <0.3, ++<0.6, +<0.7).

The next test concerns H526 cell line. In words: Cell viability assay for NCI-H526 cell line (EZ-Cytox). The following applies: Homo sapiens, NCI-H526, 120 h; H526 cells, 3-fold dilutions 3000 nM to 0.46 nM, 5 days. The procedure:
(1) Culture of NCI-H526 Cell Line
(2) Treatment of Compounds of the Present Invention and Method of Cell Viability Assay
After treating the compound to each well to make the total volume of 200 μL, it was cultured in a CO2 incubator (Thermo Fisher Science, Cat. No. 4111) for 5 days.
The absorbance of the completely cultured sample was measured by setting the wavelength of a plate reader (BMG Labtech, CLARIOstar Plus) to […], and was measured after shaking for 3 minutes in a plate reader before measurement.
In Table 3, Activity represents IC50 value of each Exemplary Compound treatment group to H526 cell line (A: <30 nM, B: <50 nM, C: <100 nM, D: <200 nM, E: <400 nM).

Another test concerns MRC-5 cell line. Nature of the test: Cell viability assay for MRC-5 cell line (EZ-Cytox cytotoxicity experiment). The following applies: Homo sapiens, MRC5, 120 h, MRC-5 normal cell line, 5 days. The procedure: 4. Cell Viability Assay for MRC-5 Cell Line
(1) Culture of MRC-5 Cell Line
Passage of cultured cells was maintained within P15.
(2) Treatment of Compounds of the Present Invention
Then, it was cultured in 37° C.
(3) Cytotoxicity Experiment
CO2 incubator for 4 hours.

Where [1] appears, read: highest concentration 10000 nM, N.D. = no cytotoxicity until 10 μM, read-out: Activity: IC50 value to MRC-5 cell line, N.D. cells.
Setting [2] is: 3-fold dilutions 10000 nM to 1.52 nM, Exemplary Compounds, numeric values, read-out: Activity: IC50 value (nM) to MRC-5 cell line.

T1 sequence (P53350 whole entry): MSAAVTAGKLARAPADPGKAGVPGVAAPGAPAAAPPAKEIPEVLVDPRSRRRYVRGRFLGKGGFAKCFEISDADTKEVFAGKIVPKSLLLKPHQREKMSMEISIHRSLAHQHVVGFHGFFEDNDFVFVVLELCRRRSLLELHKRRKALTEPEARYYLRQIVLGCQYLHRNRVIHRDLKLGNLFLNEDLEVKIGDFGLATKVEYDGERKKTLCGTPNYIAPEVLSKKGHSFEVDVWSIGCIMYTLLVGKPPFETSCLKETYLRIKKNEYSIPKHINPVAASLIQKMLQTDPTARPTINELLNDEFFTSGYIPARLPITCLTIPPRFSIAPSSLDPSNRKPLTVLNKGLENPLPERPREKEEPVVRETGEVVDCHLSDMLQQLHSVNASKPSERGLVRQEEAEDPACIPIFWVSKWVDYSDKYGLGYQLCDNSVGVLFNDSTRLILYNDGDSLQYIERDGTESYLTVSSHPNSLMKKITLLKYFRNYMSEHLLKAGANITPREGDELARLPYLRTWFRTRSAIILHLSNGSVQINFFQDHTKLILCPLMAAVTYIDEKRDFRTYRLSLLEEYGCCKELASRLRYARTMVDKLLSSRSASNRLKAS

The term IC50 denotes the concentration that gives 50% inhibition. Regarding `COc1cc(C(=O)NC2CCN(C(=O)CCN3CCN(c4cccc(NC5CCC(=O)NC5=O)c4)CC3)CC2)ccc1Nc1ncc2c(n1)N(C1CCCC1)CC(F)(F)C(=O)N2C` (stereo not drawn) [Compound 14, 4-((9-cyclopentyl-7,7-difluoro-5-methyl-6-oxo-6,7,8,9-tetrahydro-5H-pyrimido[4,5-b][1,4]diazepin-2-yl)amino)-N-(1-(3-(4-(3-((2,6-dioxopiperidin-3-yl)amino)phenyl)piperazin-1-yl)propanoyl)piperidin-4-yl)-3-methoxybenzamide], at PLK1, the “Activity: ratio of the luminescence value of each Exemplary Compound treatment group to DMSO treatment group” value (from here on “Activity: ratio”) is listed as “++ (++<0.6)”. Also, the IC50 is under 30 nM in the test with H526 cell line and over 10000 nM with MRC-5 cell line (setting [1]).

With `COc1cc(C(=O)NN2CCC(CN3CCN(c4ccc(NC5CCC(=O)NC5=O)cc4C(F)(F)F)CC3)CC2)ccc1Nc1ncc2c(n1)N(C(C)C)CC(F)(F)C(=O)N2C` (stereo not drawn) [Compound 21, 4-((7,7-difluoro-9-isopropyl-5-methyl-6-oxo-6,7,8,9-tetrahydro-5H-pyrimido[4,5-b][1,4]diazepin-2-yl)amino)-N-(4-((4-(4-((2,6-dioxopiperidin-3-yl)amino)-2-(trifluoromethyl)phenyl)piperazin-1-yl)methyl)piperidin-1-yl)-3-methoxybenzamide], the “Activity: ratio” value on PLK1 is listed as “++ (++<0.6)”. In addition, the IC50 in the test with H526 cell line is under 100 nM; with MRC-5 cell line (setting [1]), over 10000 nM.

`COc1cc(C(=O)NN2CCC(CN3CCN(c4cccc(C(=O)NC5CCC(=O)NC5=O)c4)CC3)CC2)ccc1Nc1ncc2c(n1)N(C1CCCC1)CC(F)(F)C(=O)N2C` (stereo not drawn) [Compound 9, 4-((9-cyclopentyl-7,7-difluoro-5-methyl-6-oxo-6,7,8,9-tetrahydro-5H-pyrimido[4,5-b][1,4]diazepin-2-yl)amino)-N-(4-((4-(3-((2,6-dioxopiperidin-3-yl)carbamoyl)phenyl)piperazin-1-yl)methyl)piperidin-1-yl)-3-methoxybenzamide]: the “Activity: ratio” value at PLK1 is recorded as “++ (++<0.6)”. In addition, the concentration for half-maximal inhibition (IC50) with H526 cell line is under 50 nM; in the test with MRC-5 cell line (setting [1]), over 10000 nM.

Turning to `COc1cc(C(=O)NCC2CC3(CCN(CC4CCN(c5c(F)cc(NC6CCC(=O)NC6=O)cc5F)CC4)CC3)C2)ccc1Nc1ncc2c(n1)N(C(C)C)CC(F)(F)C(=O)N2C` (stereo not drawn) [Compound 30, 4-((7,7-difluoro-9-isopropyl-5-methyl-6-oxo-6,7,8,9-tetrahydro-5H-pyrimido[4,5-b][1,4]diazepin-2-yl)amino)-N-((7-((1-(4-((2,6-dioxopiperidin-3-yl)amino)-2,6-difluorophenyl)piperidin-4-yl)methyl)-7-azaspiro[3.5]nonan-2-yl)methyl)-3-methoxybenzamide], at PLK1, the “Activity: ratio” value is listed as “+++ (+++: <0.3)”. Further, the figures for the IC50 in the test on H526 cell line and in the test with MRC-5 cell line (setting [2]) were under 30 nM and 7870 nM, respectively.

Consider `COc1cc(C(=O)NN2CCC(CCN3CCN(c4ccc(N(C)C5CCC(=O)NC5=O)cc4F)CC3)CC2)ccc1Nc1ncc2c(n1)N(C1CCCC1)CC(F)(F)C(=O)N2C` (stereo not drawn) [Compound 23, 4-((9-cyclopentyl-7,7-difluoro-5-methyl-6-oxo-6,7,8,9-tetrahydro-5H-pyrimido[4,5-b][1,4]diazepin-2-yl)amino)-N-(4-(2-(4-(4-((2,6-dioxopiperidin-3-yl)(methyl)amino)-2-fluorophenyl)piperazin-1-yl)ethyl)piperidin-1-yl)-3-methoxybenzamide], for which the “Activity: ratio” value at PLK1 was “+++ (+++: <0.3)”. Moreover, the IC50 in the test on H526 cell line was under 30 nM; in the test with MRC-5 cell line (setting [1]), over 10000 nM.

For the compound `COc1cc(C(=O)NC2CC3(CCN(CC4CCN(c5cccc6c5n(C)c(=O)n6C5CCC(=O)NC5=O)CC4)CC3)C2)ccc1Nc1ncc2c(n1)N(C(C)C)CC(F)(F)C(=O)N2C` (stereo not drawn) [Compound 38, 4-((7,7-difluoro-9-isopropyl-5-methyl-6-oxo-6,7,8,9-tetrahydro-5H-pyrimido[4,5-b][1,4]diazepin-2-yl)amino)-N-(7-((1-(1-(2,6-dioxopiperidin-3-yl)-3-methyl-2-oxo-2,3-dihydro-1H-benzo[d]imidazol-4-yl)piperidin-4-yl)methyl)-7-azaspiro[3.5]nonan-2-yl)-3-methoxybenzamide], the “Activity: ratio” value on PLK1 was “++ (++<0.6)”. For the same compound, the results for the IC50 in the test with H526 cell line and with MRC-5 cell line (setting [2]) were under 30 nM and 3960 nM, respectively.

Turning to `COc1cc(C(=O)NN2CCC(CCN3CCN(c4ccc(NC5CCC(=O)NC5=O)cc4F)CC3)CC2)ccc1Nc1ncc2c(n1)N(C1CCCC1)CC(F)(F)C(=O)N2C` (stereo not drawn) [Compound 22, 4-((9-cyclopentyl-7,7-difluoro-5-methyl-6-oxo-6,7,8,9-tetrahydro-5H-pyrimido[4,5-b][1,4]diazepin-2-yl)amino)-N-(4-(2-(4-(4-((2,6-dioxopiperidin-3-yl)amino)-2-fluorophenyl)piperazin-1-yl)ethyl)piperidin-1-yl)-3-methoxybenzamide], the “Activity: ratio” value at PLK1 was “+++ (+++: <0.3)”. Besides, the IC50 is under 30 nM in the test on H526 cell line and over 10000 nM with MRC-5 cell line (setting [1]).

In the case of `COc1cc(C(=O)NC2CC3(CCN(CC4CCN(c5ccc(NC6CCC(=O)NC6=O)cc5F)CC4)CC3)C2)ccc1Nc1ncc2c(n1)N(C(C)C)CC(F)(F)C(=O)N2C` (stereo not drawn) [Compound 24, 4-((7,7-difluoro-9-isopropyl-5-methyl-6-oxo-6,7,8,9-tetrahydro-5H-pyrimido[4,5-b][1,4]diazepin-2-yl)amino)-N-(7-((1-(4-((2,6-dioxopiperidin-3-yl)amino)-2-fluorophenyl)piperidin-4-yl)methyl)-7-azaspiro[3.5]nonan-2-yl)-3-methoxybenzamide], the “Activity: ratio” value on PLK1 is recorded as “+++ (+++: <0.3)”. Further, the IC50 was under 30 nM in the test on H526 cell line and 23200 nM in the test on MRC-5 cell line (setting [2]).

Turning to `COc1cc(C(=O)NC2CC3(CCN(CC4CCN(c5c(F)cc(NC6CCC(=O)NC6=O)cc5F)CC4)CC3)C2)ccc1Nc1ncc2c(n1)N(C(C)C)CC(F)(F)C(=O)N2C` (stereo not drawn) [Compound 25, 4-((7,7-difluoro-9-isopropyl-5-methyl-6-oxo-6,7,8,9-tetrahydro-5H-pyrimido[4,5-b][1,4]diazepin-2-yl)amino)-N-(7-((1-(4-((2,6-dioxopiperidin-3-yl)amino)-2,6-difluorophenyl)piperidin-4-yl)methyl)-7-azaspiro[3.5]nonan-2-yl)-3-methoxybenz amide], the “Activity: ratio” value at PLK1 was “+++ (+++: <0.3)”. Also, the IC50 was under 30 nM with H526 cell line and 9240 nM in the test with MRC-5 cell line (setting [2]).

With `COc1cc(C(=O)NN2CCC(N3CC4(CCN(c5ccc(N(C)C6CCC(=O)NC6=O)cc5F)CC4)C3)CC2)ccc1Nc1ncc2c(n1)N(C(C)C)CC(F)(F)C(=O)N2C` (stereo not drawn) [Compound 33, 4-((7,7-difluoro-9-isopropyl-5-methyl-6-oxo-6,7,8,9-tetrahydro-5H-pyrimido[4,5-b][1,4]diazepin-2-yl)amino)-N-(4-(7-(4-((2,6-dioxopiperidin-3-yl)(methyl)amino)-2-fluorophenyl)-2,7-diazaspiro[3.5]nonan-2-yl)piperidin-1-yl)-3-methoxybenzamide], the “Activity: ratio” value on PLK1 is “++ (++<0.6)”. The IC50 is under 50 nM with H526 cell line and 25000 nM in the test with MRC-5 cell line (setting [2]).
